Experimental data taken from patent publication US7217727B2, “Phospholipase inhibitors” (Eli Lilly and Company, priority 2003, dated 2007).

What was measured:
[1] = molecular target: T1, Recombinant Hepatic Lipase (Homo sapiens, UniProt P11150); assay: Hepatic Lipase Phospholipase Assay (ThioPEG substrate, DTNB read at 412 nm); format: biochemical; details: recombinant HL 12.5 nM, 37° C., pH 8.3, read-out: IC50 (nM), hepatic lipase inhibition assay
T1 construct: made in house; host or cells: AV12 cells
T1 sequence (P11150 23-499): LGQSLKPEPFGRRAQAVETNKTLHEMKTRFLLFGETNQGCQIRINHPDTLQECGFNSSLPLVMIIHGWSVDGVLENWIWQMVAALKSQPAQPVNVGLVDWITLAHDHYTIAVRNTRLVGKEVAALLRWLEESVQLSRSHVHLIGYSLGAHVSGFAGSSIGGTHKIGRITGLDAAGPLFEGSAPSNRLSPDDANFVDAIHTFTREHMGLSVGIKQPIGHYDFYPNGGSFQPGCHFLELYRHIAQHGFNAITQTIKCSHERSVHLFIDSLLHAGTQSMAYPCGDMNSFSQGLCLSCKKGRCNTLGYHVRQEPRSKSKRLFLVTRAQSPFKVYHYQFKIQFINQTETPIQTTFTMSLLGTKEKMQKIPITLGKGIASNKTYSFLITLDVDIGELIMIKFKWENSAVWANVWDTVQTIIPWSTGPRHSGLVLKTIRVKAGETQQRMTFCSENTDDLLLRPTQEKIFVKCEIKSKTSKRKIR
Method: Hepatic Lipase Phospholipase Assay
Efficacy was determined by testing various compounds of the invention in a hepatic lipase and/or endothelial lipase assay discussed below, and disclosed in U.S. patent application Ser. No. 09/609, 871 filed Jul. 3, 2000 incorporated herein in its entirety for U.S Patent office purposes.
• Substrate Buffer A: 100 mM Hepes, pH 8.3 at 37° C. • Substrate Buffer B: 100 mM Hepes, pH 8.3 at 37° C. with 6.83 mM Triton X100 • ThioPEG: Molecular wt. of 540 • Recombinant Hepatic Lipase • Thiophospholipid: about 0.42 mM thiophospholipid in chloroform • DTNB Solution: about […] DTNB in DMSO (dimethyl sulfoxide) Hepes Buffer A
For Hepes Buffer A,.there is 2.4 g Hepes/100 mL water. Therefore 36 grams of Hepes is dissolved in 1500 mL of water. The mix solution's pH is adjusted to pH83 at 37° C. and brought up to 1500 mL with water. 500 mL of Buffer A is retained for the Protein Buffer.
To the remaining 1000 mL of Hepes Buffer A, 4.49 g of Triton X-100 is added and then the combination mixed on a stir plate. It is optimal that stock Buffer A not be too cold or Triton X-100 will take a long time to go into solution […]
The enzyme is stored at −80° C. in 100 or 50 μL portions. […] The enzyme should then be stored on ice until ready to use. […]

Row | Compound | IC50 [1] [nM] | melting point [°C]
1 | CCNC(=O)n1oc2ccccc2c1=O [Example 1, 3-Oxo-3H-benzo[d]isoxazole-2-carboxylic acid ethylamide] | – | 112 to 113
2 | CCCCNC(=O)n1oc2ccccc2c1=O [Example 2, 3-Oxo-3H-benzo[d]isoxazole-2-carboxylic acid butylamide] | – | 64 to 65
3 | CCCCCCNC(=O)n1oc2ccccc2c1=O [Example 3, 3-Oxo-3H-benzo[d]isoxazole-2-carboxylic acid hexylamide] | – | 46 to 48
4 | CC(C)CCCCNC(=O)n1oc2ccccc2c1=O [Example 4, 3-Oxo-3H-benzo[d]isoxazole-2-carboxylic acid (5-methyl-hexyl)amide] | – | 73 to 75
5 | CCCCCCCCNC(=O)n1oc2ccccc2c1=O [Example 5, 3-Oxo-3H-benzo[d]isoxazole-2-carboxylic acid octylamide] | – | 47 to 48
6 | O=C(NCC1CCCCC1)n1oc2ccccc2c1=O [Example 6, 3-Oxo-3H-benzo[d]isoxazole-2-carboxylic acid cyclohexylmethyl-amide] | – | 82 to 84
7 | O=C(NCc1ccccc1C(F)(F)F)n1oc2ccccc2c1=O [Example 11, 3-Oxo-3H-benzo[d]isoxazole-2-carboxylic acid 2-trifluoromethyl-benzylamide] | – | 139 to 141
8 | CC(C)(C)c1ccc(CNC(=O)n2oc3ccccc3c2=O)cc1 [Example 16, 3-Oxo-3H-benzo[d]isoxazole-2-carboxylic acid 4-tert-butyl-benzylamide] | – | 123 to 125
9 | Cc1cccc(C(C)C)c1CNC(=O)n1oc2ccccc2c1=O [Example 17, 3-Oxo-3H-benzo[d]isoxazole-2-carboxylic acid 2-isopropyl-6-methyl-benzylamide] | – | 112 to 114
10 | COc1ccc(CNC(=O)n2oc3ccccc3c2=O)cc1 [Example 19, 3-Oxo-3H-benzo[d]isoxazole-2-carboxylic acid 4-methoxy-benzylamide] | – | 140 to 141
11 | CCOc1cccc(CNC(=O)n2oc3ccccc3c2=O)c1 [Example 21, 3-Oxo-3H-benzo[d]isoxazole-2-carboxylic acid 3-ethoxy-benzylamide] | – | 89 to 90
12 | CCOc1ccc(CNC(=O)n2oc3ccccc3c2=O)cc1 [Example 22, 3-Oxo-3H-benzo[d]isoxazole-2-carboxylic acid 4-ethoxy-benzylamide] | – | 110 to 112

Next, values leading:

Row | IC50 [1] [nM] | melting point [°C] | Compound
13 | 60 | – | O=C(NCc1ccccc1)n1oc2ccccc2c1=O
14 | – | 154 to 155 | Cc1ccccc1CNC(=O)n1oc2ccccc2c1=O [Example 8, 3-Oxo-3H-benzo[d]isoxazole-2-carboxylic acid 2-methyl-benzylamide]
15 | – | 110 to 112 | Cc1cccc(CNC(=O)n2oc3ccccc3c2=O)c1 [Example 9, 3-Oxo-3H-benzo[d]isoxazole-2-carboxylic acid 3-methyl-benzylamide]
16 | – | 142 to 143 | O=C(NCc1ccccc1F)n1oc2ccccc2c1=O [Example 12, 3-Oxo-3H-benzo[d]isoxazole-2-carboxylic acid 2-fluoro-benzylamide]
17 | – | 107 to 109 | CCc1ccccc1CNC(=O)n1oc2ccccc2c1=O [Example 14, 3-Oxo-3H-benzo[d]isoxazole-2-carboxylic acid 2-ethyl-benzylamide]
18 | – | 72 to 73 | CCc1cccc(CNC(=O)n2oc3ccccc3c2=O)c1 [Example 15, 3-Oxo-3H-benzo[d]isoxazole-2-carboxylic acid 3-ethyl-benzylamide]
19 | – | 99 to 100 | COc1cccc(CNC(=O)n2oc3ccccc3c2=O)c1 [Example 18, 3-Oxo-3H-benzo[d]isoxazole-2-carboxylic acid 3-methoxy-benzylamide]
20 | – | 110 to 112 | CCOc1ccccc1CNC(=O)n1oc2ccccc2c1=O [Example 20, 3-Oxo-3H-benzo[d]isoxazole-2-carboxylic acid 2-ethoxy-benzylamide]
21 | – | 106 to 107 | O=C(NCCc1ccccc1)n1oc2ccccc2c1=O [Example 23, 3-Oxo-3H-benzo[d]isoxazole-2-carboxylic acid phenethyl-amide]
